Test results taken from patent US20220402914A1, “Tryptoline-Based Benzothiazoles and their use as Antibiotics and Antibiotic Resistance-Modifying Agents” (The Regents of the University of Colorado, a body corporate, priority 2019, published 2022).
≈ marks a conversion by molar mass, not a printed value. Where “and” joins values, the source holds several entries; their conditions need not be identical. Equal entries are not always repeated.

Experiments:
MRSA ATCC BAA-44 [1] = experiment: Minimum re-sensitizing concentration (MRC) in the presence of cefazolin; type: cell-based, Staphylococcus aureus; conditions: MRSA BAA-44, cefazolin
Method: (§1) RMA activity of the analogues was tested by assessing their abilities to sensitize MRSA to the antibiotic cefazolin (a first-generation cephalosporin). The well characterized strain MRSA ATCC BAA-44 was tested as previously described. […] The minimal inhibitory concentration (MIC), or the lowest concentration at which S. aureus is considered susceptible to an antibacterial, was determined by the standard broth microdilution method detailed in the CLSI handbook. RMA activity was compared by the ratio of MIC/MRC. The half growth inhibitory concentration (GI50) of each analogue against HeLa cells was determined as previously described. […] The luminescence of each sample was recorded in an Envision Multilabel Plate Reader (Perkin Elmer). Results of MICs and MRCs were confirmed by testing in triplicate. The GI50 assay was performed in duplicate.

HeLa cells = experiment: GI50 against HeLa cells, Cell Titer Glo viability assay; type: cell-based, human; conditions: 24 h
Method: as §1

MRSA ATCC BAA-44 [2] = experiment: Minimal inhibitory concentration (MIC), standard broth microdilution; type: cell-based, Staphylococcus aureus; conditions: for MIC: Staphylococcus aureus, MRSA BAA-44 strain, read-out: MIC; for concentration that inhibited the growth of MRSA BAA-44 on average (antibiotic controls): antibiotic alone; for MIC (in words): MRSA BAA-44
Method: as §1

| Compound | MIC (MRSA ATCC BAA-44 [2]) | GI50 (HeLa cells) | also measured |
| --- | --- | --- | --- |
| CN(C)C(=O)C1CN(c2nc3ccc(Cl)cc3s2)Cc2[nH]c3ccc(Cl)cc3c21 (racemic) [Compound 9, 6-Chloro-2-(6-chlorobenzo[d]thiazol-2-yl)-N,N-dimethyl-2,3,4,9-tetrahydro-1H-pyrido[3,4-b]indole-4-carboxamide] |  |  | RMA activity (in words) (MRSA ATCC BAA-44 [1]): significantly decreased or abolished the RMA activity |
| OCC1CN(c2nc3ccc(Cl)cc3s2)Cc2[nH]c3ccc(Cl)cc3c21 (racemic) [Compound 10, (6-Chloro-2-(6-chlorobenzo[d]thiazol-2-yl)-2,3,4,9-tetrahydro-1H-pyrido[3,4-b]indol-4-yl)methanol] |  | 10.8 µg/mL (≈ 26.7 µM) |  |
| COCOCC1CN(c2nc3ccc(Cl)cc3s2)Cc2[nH]c3ccc(Cl)cc3c21 (racemic) [Compound 11, 6-Chloro-2-(6-chloro-4-((methoxymethoxy)methyl)-1,3,4,9-tetrahydro-2H-pyrido[3,4-b]indol-2-yl)benzo[d]thiazole] |  | 7.0 µg/mL (≈ 15.6 µM) |  |
| Cl.NCCSCC1CN(c2nc3ccc(Cl)cc3s2)Cc2[nH]c3ccc(Cl)cc3c21 (racemic) [Compound 12a, 2-(((6-Chloro-2-(6-chlorobenzo[d]thiazol-2-yl)-2,3,4,9-tetrahydro-1H-pyrido[3,4-b]indol-4-yl)methyl)thio)ethan-1-amine hydrochloride] |  | 3.8 µg/mL |  |
| NCC1CN(c2nc3ccc(Cl)cc3s2)Cc2[nH]c3ccc(Cl)cc3c21 (racemic) [Compound 12b, (6-Chloro-2-(6-chlorobenzo[d]thiazol-2-yl)-2,3,4,9-tetrahydro-1H-pyrido[3,4-b]indol-4-yl)methanamine] |  | 1.5 µg/mL (≈ 3.72 µM) |  |
| NCCNCC1CN(c2nc3ccc(Cl)cc3s2)Cc2[nH]c3ccc(Cl)cc3c21 (racemic) [Compound 12e, N1-((6-chloro-2-(6-chlorobenzo[d]thiazol-2-yl)-2,3,4,9-tetrahydro-1H-pyrido[3,4-b]indol-4-yl)methyl)ethane-1,2-diamine] |  | 2.4 µg/mL (≈ 5.38 µM) |  |
| Cc1nnc(SCC2=C(C(=O)O)N3C(=O)[C@@H](NC(=O)Cn4cnnn4)[C@H]3SC2)s1 [Cefazolin, reference compound] |  |  | concentration that inhibited the growth of MRSA BAA-44 on average (antibiotic controls) (MRSA ATCC BAA-44 [2]): 128 µg/mL and 256 µg/mL |
| CO/N=C(\C(=O)N[C@@H]1C(=O)N2C(C(=O)O)=C(COC(N)=O)CS[C@H]12)c1ccco1 [Cefuroxime, reference compound] |  |  | concentration that inhibited the growth of MRSA BAA-44 on average (antibiotic controls) (MRSA ATCC BAA-44 [2]): 128 µg/mL and 256 µg/mL |
| Oc1cc(Cl)c2nc(N3CCc4c([nH]c5ccc(Cl)cc45)C3)sc2c1 [Compound 4aa, 4-Chloro-2-(6-chloro-1,3,4,9-tetrahydro-2H-pyrido[3,4-b]indol-2-yl)-1,3-benzothiazol-6-ol] | > 32 µg/mL | 5.5 µg/mL (≈ 14.1 µM) |  |
| NCCOc1cc(Cl)c2nc(N3CCc4c([nH]c5ccc(Cl)cc45)C3)sc2c1 [Compound 4ab, 2-((4-Chloro-2-(6-chloro-1,3,4,9-tetrahydro-2H-pyrido[3,4-b]indol-2-yl)benzo[d]thiazol-6-yl)oxy)ethan-1-amine] | 8 µg/mL (≈ 18.5 µM) |  |  |
| Clc1ccc2[nH]c3c(c2c1)CCN(c1nc2c(Cl)cc(Br)cc2s1)C3 [Compound 4ac, 2-(6-Bromo-4-chloro-1,3-benzothiazol-2-yl)-6-chloro-2,3,4,9-tetrahydro-1H-pyrido[3,4-b]indole] | > 32 µg/mL | 22 µg/mL (≈ 48.5 µM) |  |
| Cl.NCC(=O)Nc1cc(Cl)c2nc(N3CCc4c([nH]c5ccc(Cl)cc45)C3)sc2c1 [Compound 4ae, 2-amino-N-(4-chloro-2-(6-chloro-1,3,4,9-tetrahydro-2H-pyrido[3,4-b]indol-2-yl)benzo[d]thiazol-6-yl)acetamide hydrochloride] |  | 14.8 µg/mL | MIC (in words) (MRSA ATCC BAA-44 [2]): excellent MICs |
| FC(F)(F)c1cc(Br)cc2sc(N3CCc4c([nH]c5ccc(Cl)cc45)C3)nc12 [Compound 4ag, 2-[6-Bromo-4-(trifluoromethyl)-1,3-benzothiazol-2-yl]-6-chloro-2,3,4,9-tetrahydro-1H-pyrido[3,4-b]indole] | 4 µg/mL (≈ 8.22 µM) | 5.9 µg/mL (≈ 12.1 µM) |  |
| Cl.Nc1cc(C(F)(F)F)c2nc(N3CCc4c([nH]c5ccc(Cl)cc45)C3)sc2c1 [Compound 4ah, 2-(6-Chloro-1,3,4,9-tetrahydro-2H-pyrido[3,4-b]indol-2-yl)-4-(trifluoromethyl)-1,3-benzothiazol-6-aminium chloride] | 16 µg/mL | 32 µg/mL |  |
| Cl.NCCNc1cc(C(F)(F)F)c2nc(N3CCc4c([nH]c5ccc(Cl)cc45)C3)sc2c1 [Compound 4aj, N1-(2-(6-chloro-1,3,4,9-tetrahydro-2H-pyrido[3,4-b]indol-2-yl)-4-(trifluoromethyl)benzo[d]thiazol-6-yl)ethane-1,2-diamine hydrochloride] |  | 7.4 µg/mL | MIC (in words) (MRSA ATCC BAA-44 [2]): excellent MICs |
| Clc1ccc2[nH]c3c(c2c1)CCN(c1nc2ccccc2s1)C3 [Compound 4b, 2-(1,3-Benzothiazol-2-yl)-6-chloro-2,3,4,9-tetrahydro-1H-pyrido[3,4-b]indole] |  |  | RMA activity (in words) (MRSA ATCC BAA-44 [1]): no RMA activity |
| Cc1ccc2nc(N3CCc4c([nH]c5ccc(Cl)cc45)C3)sc2c1 [Compound 4c, 6-Chloro-2-(6-methyl-1,3-benzothiazol-2-yl)-2,3,4,9-tetrahydro-1H-pyrido[3,4-b]indole] |  |  | RMA activity (in words) (MRSA ATCC BAA-44 [1]): no RMA activity |
| Clc1ccc2[nH]c3c(c2c1)CCN(c1nc2ncccc2s1)C3 [Compound 4d, 6-Chloro-2-([1,3]thiazolo[4,5-b]pyridin-2-yl)-2,3,4,9-tetrahydro-1H-pyrido[3,4-b]indole] |  |  | RMA activity (in words) (MRSA ATCC BAA-44 [1]): abolished |
| FC(F)(F)c1cnc2nc(N3CCc4c([nH]c5ccc(Cl)cc45)C3)sc2c1 [Compound 4e, 6-Chloro-2-[6-(trifluoromethyl)[1,3]thiazolo[4,5-b]pyridin-2-yl]-2,3,4,9-tetrahydro-1H-pyrido[3,4-b]indole] |  |  | RMA activity (in words) (MRSA ATCC BAA-44 [1]): abolished |
| Clc1ccc2nc(N3CCc4c([nH]c5cccc(Cl)c45)C3)sc2c1 [Compound 4f, 5-Chloro-2-(6-chloro-1,3-benzothiazol-2-yl)-2,3,4,9-tetrahydro-1H-pyrido[3,4-b]indole] | > 16 µg/mL |  |  |
| Clc1ccc2nc(N3CCc4c([nH]c5c(Cl)cccc45)C3)sc2c1 [Compound 4h, 8-Chloro-2-(6-chloro-1,3-benzothiazol-2-yl)-2,3,4,9-tetrahydro-1H-pyrido[3,4-b]indole] | > 16 µg/mL |  |  |
| Clc1ccc2nc(N3CCc4c([nH]c5ccc(Br)cc45)C3)sc2c1 [Compound 4j, 6-Bromo-2-(6-chloro-1,3-benzothiazol-2-yl)-2,3,4,9-tetrahydro-1H-pyrido[3,4-b]indole] | 4 µg/mL (≈ 9.55 µM) |  |  |
| CCOC(=O)C1c2[nH]c3ccc(Cl)cc3c2CCN1c1nc2ccc(Cl)cc2s1 (stereo not shown) [Compound 4l, Ethyl 6-chloro-2-(6-chloro-1,3-benzothiazol-2-yl)-2,3,4,9-tetrahydro-1H-pyrido[3,4-b]indole-1-carboxylate] |  |  | RMA activity (in words) (MRSA ATCC BAA-44 [1]): abolished |
| CCn1c2c(c3cc(Cl)ccc31)CCN(c1nc3ccc(Cl)cc3s1)C2 [Compound 4o, 6-Chloro-2-(6-chloro-1,3-benzothiazol-2-yl)-9-ethyl-2,3,4,9-tetrahydro-1H-pyrido[3,4-b]indole] |  |  | RMA activity (in words) (MRSA ATCC BAA-44 [1]): abolished |
| Clc1cc(Cl)c2nc(N3CCc4c([nH]c5ccc(Cl)cc45)C3)sc2c1 [Compound 4x, 6-Chloro-2-(4,6-dichloro-1,3-benzothiazol-2-yl)-2,3,4,9-tetrahydro-1H-pyrido[3,4-b]indole] | 2 µg/mL (≈ 4.89 µM) | 16.1 µg/mL (≈ 39.4 µM) | MIC (in words) (MRSA ATCC BAA-44 [2]): excellent MICs |
| Clc1ccc2[nH]c3c(c2c1)CCN(c1nc2c(Cl)c(Cl)c(Cl)cc2s1)C3 [Compound 4y, 6-Chloro-2-(4,5,6-trichloro-1,3-benzothiazol-2-yl)-2,3,4,9-tetrahydro-1H-pyrido[3,4-b]indole] | 2 µg/mL (≈ 4.51 µM) | 11.7 µg/mL (≈ 26.4 µM) | MIC (in words) (MRSA ATCC BAA-44 [2]): excellent MICs |

Now from value to compound, other results behind:

| MIC (MRSA ATCC BAA-44 [2]) | Compound | GI50 (HeLa cells) | also measured |
| --- | --- | --- | --- |
| 2 µg/mL (≈ 4.64 µM) | CN(C)CC1CN(c2nc3ccc(Cl)cc3s2)Cc2[nH]c3ccc(Cl)cc3c21 (racemic) [Compound 12c, 1-(6-Chloro-2-(6-chlorobenzo[d]thiazol-2-yl)-2,3,4,9-tetrahydro-1H-pyrido[3,4-b]indol-4-yl)-N,N-Dimethylmethanamine] | 5.2 µg/mL (≈ 12.1 µM) |  |
| 8 µg/mL | C[N+](C)(C)CC1CN(c2nc3ccc(Cl)cc3s2)Cc2[nH]c3ccc(Cl)cc3c21.[I-] (racemic) [Compound 12d, 1-(6-Chloro-2-(6-chlorobenzo[d]thiazol-2-yl)-2,3,4,9-tetrahydro-1H-pyrido[3,4-b]indol-4-yl)-N,N,N-trimethylmethanaminium iodide] |  |  |
| 4 µg/mL (≈ 9.29 µM) | N=CNCC1CN(c2nc3ccc(Cl)cc3s2)Cc2[nH]c3ccc(Cl)cc3c21 (racemic) [Compound 12f, N-((6-chloro-2-(6-chlorobenzo[d]thiazol-2-yl)-2,3,4,9-tetrahydro-1H-pyrido[3,4-b]indol-4-yl)methyl)formimidamide] | 3.8 µg/mL (≈ 8.83 µM) |  |
| 4 µg/mL (≈ 10.6 µM) | S=C(Nc1ccc(Cl)cc1)N1CCc2c([nH]c3ccc(Cl)cc23)C1 [Compound 5a, 6-Chloro-N-(4-chlorophenyl)-1,3,4,9-tetrahydro-2H-pyrido[3,4-b]indole-2-carbothioamide] |  |  |
| 2 µg/mL (≈ 4.88 µM) | FC(F)(F)c1cccc(NC(=S)N2CCc3c([nH]c4ccc(Cl)cc34)C2)c1 [Compound 5c, 6-Chloro-N-[3-(trifluoromethyl)phenyl]-1,3,4,9-tetrahydro-2H-pyrido[3,4-b]indole-2-carbothioamide] |  |  |
